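Exposure lasted 48 hours, with cells grown in 96-well plates and compounds tested at five concentrations. TGI denotes the concentration required for complete inhibition of growth.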
Columns and labels:
Assay in all cases: DTP human tumour cell line panel, 48 h
786-0 renal = system: 786-0 renal
A498 renal = system: A498 renal
A549 NSCLC = system: A549 NSCLC
ACHN renal = system: ACHN renal
BT-549 breast = system: BT-549 breast
CAKI-1 renal = system: CAKI-1 renal
CCRF-CEM leukemia = system: CCRF-CEM leukemia
COLO 205 colon = system: COLO 205 colon
DLD-1 colon = system: DLD-1 colon
DMS 114 small cell lung = system: DMS 114 small cell lung
DMS 273 small cell lung = system: DMS 273 small cell lung
DU-145 prostate = system: DU-145 prostate
EKVX NSCLC = system: EKVX NSCLC
HCC-2998 colon = system: HCC-2998 colon
HCT-116 colon = system: HCT-116 colon
HCT-15 colon = system: HCT-15 colon
HL-60(TB) leukemia = system: HL-60(TB) leukemia
HOP-18 NSCLC = system: HOP-18 NSCLC
HOP-62 NSCLC = system: HOP-62 NSCLC
HOP-92 NSCLC = system: HOP-92 NSCLC
HS 578T breast = system: HS 578T breast
HT29 colon = system: HT29 colon
IGROV1 ovarian = system: IGROV1 ovarian
K-562 leukemia = system: K-562 leukemia
KM12 colon = system: KM12 colon
KM20L2 colon = system: KM20L2 colon
LOX IMVI melanoma = system: LOX IMVI melanoma
LXFL 529 NSCLC = system: LXFL 529 NSCLC
M14 melanoma = system: M14 melanoma
M19-MEL melanoma = system: M19-MEL melanoma
MALME-3M melanoma = system: MALME-3M melanoma
MDA-MB-231 breast = system: MDA-MB-231 breast
MDA-MB-435 = system: MDA-MB-435
MDA-N = system: MDA-N
MOLT-4 leukemia = system: MOLT-4 leukemia
NCI-H226 lung = system: NCI-H226 lung
NCI-H23 lung = system: NCI-H23 lung
NCI-H460 lung = system: NCI-H460 lung
NCI-H522 lung = system: NCI-H522 lung
NCI/ADR-RES ovarian = system: NCI/ADR-RES ovarian
OVCAR-3 ovarian = system: OVCAR-3 ovarian
OVCAR-4 ovarian = system: OVCAR-4 ovarian
OVCAR-5 ovarian = system: OVCAR-5 ovarian
OVCAR-8 ovarian = system: OVCAR-8 ovarian
PC-3 prostate = system: PC-3 prostate
RPMI-8226 leukemia = system: RPMI-8226 leukemia
RXF 393 renal = system: RXF 393 renal
RXF-631 renal = system: RXF-631 renal
SF-268 CNS = system: SF-268 CNS
SF-295 CNS = system: SF-295 CNS
SF-539 CNS = system: SF-539 CNS
SK-MEL-2 melanoma = system: SK-MEL-2 melanoma
SK-MEL-28 melanoma = system: SK-MEL-28 melanoma
SK-MEL-5 melanoma = system: SK-MEL-5 melanoma
SK-OV-3 ovarian = system: SK-OV-3 ovarian
SN12C renal = system: SN12C renal
SNB-19 CNS = system: SNB-19 CNS
SNB-75 CNS = system: SNB-75 CNS
SNB-78 CNS = system: SNB-78 CNS
SR leukemia = system: SR leukemia
SW-620 colon = system: SW-620 colon
T-47D breast = system: T-47D breast
TK-10 renal = system: TK-10 renal
U251 CNS = system: U251 CNS
UACC-257 melanoma = system: UACC-257 melanoma
UACC-62 melanoma = system: UACC-62 melanoma
UO-31 renal = system: UO-31 renal
XF 498 CNS = system: XF 498 CNS
MCF7 breast = system: MCF7 breast

## Nc1ccc(S(=O)(=O)Nc2cnc3ccccc3n2)cc1
786-0 renal
  TGI: > 100 µM
A498 renal
  TGI: > 100 µM
A549 NSCLC
  TGI: > 100 µM
ACHN renal
  TGI: > 100 µM
BT-549 breast
  TGI: > 100 µM
CAKI-1 renal
  TGI: > 100 µM
CCRF-CEM leukemia
  TGI: > 100 µM
COLO 205 colon
  TGI: > 100 µM
DLD-1 colon
  TGI: > 100 µM
DMS 114 small cell lung
  TGI: > 100 µM
DMS 273 small cell lung
  TGI: > 100 µM
DU-145 prostate
  TGI: > 100 µM
EKVX NSCLC
  TGI: > 100 µM
HCC-2998 colon
  TGI: > 100 µM
HCT-116 colon
  TGI: > 100 µM
HCT-15 colon
  TGI: > 100 µM
HL-60(TB) leukemia
  TGI: > 100 µM
HOP-18 NSCLC
  TGI: > 100 µM
HOP-62 NSCLC
  TGI: > 100 µM
HOP-92 NSCLC
  TGI: > 100 µM
HS 578T breast
  TGI: 35.3 µM
HT29 colon
  TGI: > 100 µM
IGROV1 ovarian
  TGI: > 100 µM
K-562 leukemia
  TGI: > 100 µM
KM12 colon
  TGI: > 100 µM
KM20L2 colon
  TGI: > 100 µM
LOX IMVI melanoma
  TGI: > 100 µM
LXFL 529 NSCLC
  TGI: > 100 µM
M14 melanoma
  TGI: > 100 µM
M19-MEL melanoma
  TGI: > 100 µM
MALME-3M melanoma
  TGI: > 100 µM
MDA-MB-231 breast
  TGI: > 100 µM
MDA-MB-435
  TGI: > 100 µM
MDA-N
  TGI: > 100 µM
MOLT-4 leukemia
  TGI: > 100 µM
NCI-H226 lung
  TGI: > 100 µM
NCI-H23 lung
  TGI: > 100 µM
NCI-H460 lung
  TGI: > 100 µM
NCI-H522 lung
  TGI: > 100 µM
NCI/ADR-RES ovarian
  TGI: > 100 µM
OVCAR-3 ovarian
  TGI: > 100 µM
OVCAR-4 ovarian
  TGI: > 100 µM
OVCAR-5 ovarian
  TGI: > 100 µM
OVCAR-8 ovarian
  TGI: > 100 µM
PC-3 prostate
  TGI: > 100 µM
RPMI-8226 leukemia
  TGI: > 100 µM
RXF 393 renal
  TGI: > 100 µM
RXF-631 renal
  TGI: > 100 µM
SF-268 CNS
  TGI: > 100 µM
SF-295 CNS
  TGI: > 100 µM
SF-539 CNS
  TGI: > 100 µM
SK-MEL-2 melanoma
  TGI: > 100 µM
SK-MEL-28 melanoma
  TGI: > 100 µM
SK-MEL-5 melanoma
  TGI: > 100 µM
SK-OV-3 ovarian
  TGI: > 100 µM
SN12C renal
  TGI: > 100 µM
SNB-19 CNS
  TGI: > 100 µM
SNB-75 CNS
  TGI: > 100 µM
SNB-78 CNS
  TGI: > 100 µM
SR leukemia
  TGI: > 100 µM
SW-620 colon
  TGI: > 100 µM
T-47D breast
  TGI: > 100 µM
TK-10 renal
  TGI: > 100 µM
U251 CNS
  TGI: > 100 µM
UACC-257 melanoma
  TGI: > 100 µM
UACC-62 melanoma
  TGI: > 100 µM
UO-31 renal
  TGI: > 100 µM
XF 498 CNS
  TGI: > 100 µM

## CCc1cccc(CC)c1NC(=O)C(C#N)C1=C(Cl)C(=O)c2ccccc2C1=O (stereo unspecified)
786-0 renal
  TGI: 31 µM
A498 renal
  TGI: 36.5 µM
A549 NSCLC
  TGI: 40.9 µM
ACHN renal
  TGI: 30.5 µM
BT-549 breast
  TGI: 24.8 µM
CAKI-1 renal
  TGI: 24.7 µM
CCRF-CEM leukemia
  TGI: 15.6 µM
COLO 205 colon
  TGI: 49.1 µM
DLD-1 colon
  TGI: 45.2 µM
DMS 114 small cell lung
  TGI: 65.4 µM
DMS 273 small cell lung
  TGI: 45.3 µM
DU-145 prostate
  TGI: 30.5 µM
EKVX NSCLC
  TGI: 36 µM
HCC-2998 colon
  TGI: 31.2 µM
HCT-116 colon
  TGI: 34 µM
HCT-15 colon
  TGI: 42.9 µM
HL-60(TB) leukemia
  TGI: 5.28 µM
HOP-18 NSCLC
  TGI: 28.9 µM
HOP-62 NSCLC
  TGI: 21.4 µM
HOP-92 NSCLC
  TGI: 8.89 µM
HS 578T breast
  TGI: 9.32 µM
HT29 colon
  TGI: 39.7 µM
IGROV1 ovarian
  TGI: 32 µM
K-562 leukemia
  TGI: 14.1 µM
KM12 colon
  TGI: 35.5 µM
KM20L2 colon
  TGI: 43.8 µM
LOX IMVI melanoma
  TGI: 45.1 µM
LXFL 529 NSCLC
  TGI: 30.1 µM
M14 melanoma
  TGI: 35.1 µM
M19-MEL melanoma
  TGI: 47.2 µM
MALME-3M melanoma
  TGI: 21 µM
MCF7 breast
  TGI: 34.5 µM
MDA-MB-231 breast
  TGI: 21.6 µM
MDA-MB-435
  TGI: 27.9 µM
MDA-N
  TGI: 30.3 µM
MOLT-4 leukemia
  TGI: 20.3 µM
NCI-H226 lung
  TGI: 29.8 µM
NCI-H23 lung
  TGI: 24.3 µM
NCI-H460 lung
  TGI: 52 µM
NCI-H522 lung
  TGI: 23 µM
OVCAR-3 ovarian
  TGI: 36.9 µM
OVCAR-4 ovarian
  TGI: 31.6 µM
OVCAR-5 ovarian
  TGI: 34.5 µM
OVCAR-8 ovarian
  TGI: 57.1 µM
PC-3 prostate
  TGI: 25.9 µM
RPMI-8226 leukemia
  TGI: 23.4 µM
RXF 393 renal
  TGI: 29.8 µM
RXF-631 renal
  TGI: > 56.8 µM
SF-268 CNS
  TGI: 36 µM
SF-295 CNS
  TGI: 29.9 µM
SF-539 CNS
  TGI: 25.6 µM
SK-MEL-2 melanoma
  TGI: 34.7 µM
SK-MEL-28 melanoma
  TGI: 41 µM
SK-MEL-5 melanoma
  TGI: 28.2 µM
SK-OV-3 ovarian
  TGI: 42.4 µM
SN12C renal
  TGI: 31.3 µM
SNB-19 CNS
  TGI: 44.4 µM
SNB-75 CNS
  TGI: 17.4 µM
SNB-78 CNS
  TGI: 40.8 µM
SR leukemia
  TGI: > 28.9 µM
SW-620 colon
  TGI: 31.2 µM
T-47D breast
  TGI: 18.1 µM
TK-10 renal
  TGI: 35.9 µM
U251 CNS
  TGI: 33.7 µM
UACC-257 melanoma
  TGI: 32.2 µM
UACC-62 melanoma
  TGI: 31.7 µM
UO-31 renal
  TGI: 24.3 µM
XF 498 CNS
  TGI: 29.4 µM

— PubChem BioAssay (NCI)
